ChEMBL document CHEMBL5291721, “A preclinical secondary pharmacology resource illuminates target-adverse drug reaction associations of marketed drugs” (Nat Commun, 2023)

Assays:
[1] = molecular target: 5-hydroxytryptamine receptor 7 (Homo sapiens, UniProt P34969)
[2] = molecular target: T1, Muscarinic acetylcholine receptor M5 (Homo sapiens, UniProt P08912)
T1 sequence (P08912 whole entry): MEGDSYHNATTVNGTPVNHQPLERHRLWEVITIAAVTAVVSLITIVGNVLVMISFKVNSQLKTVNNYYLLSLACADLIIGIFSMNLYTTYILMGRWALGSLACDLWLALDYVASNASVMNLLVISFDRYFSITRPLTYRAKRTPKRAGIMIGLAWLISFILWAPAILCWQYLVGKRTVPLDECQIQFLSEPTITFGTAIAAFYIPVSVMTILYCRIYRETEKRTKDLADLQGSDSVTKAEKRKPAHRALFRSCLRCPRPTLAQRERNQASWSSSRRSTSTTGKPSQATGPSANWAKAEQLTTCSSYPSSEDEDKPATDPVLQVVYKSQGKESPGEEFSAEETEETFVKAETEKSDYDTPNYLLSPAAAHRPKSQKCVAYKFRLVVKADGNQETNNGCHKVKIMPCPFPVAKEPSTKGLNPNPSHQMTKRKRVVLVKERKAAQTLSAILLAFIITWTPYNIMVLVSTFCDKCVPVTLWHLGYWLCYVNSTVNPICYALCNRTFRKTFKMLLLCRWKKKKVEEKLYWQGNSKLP

Androgen receptor [3] = molecular target: T2, Androgen receptor (Rattus norvegicus, UniProt P15207); assay type: functional
T2 sequence (P15207 whole entry): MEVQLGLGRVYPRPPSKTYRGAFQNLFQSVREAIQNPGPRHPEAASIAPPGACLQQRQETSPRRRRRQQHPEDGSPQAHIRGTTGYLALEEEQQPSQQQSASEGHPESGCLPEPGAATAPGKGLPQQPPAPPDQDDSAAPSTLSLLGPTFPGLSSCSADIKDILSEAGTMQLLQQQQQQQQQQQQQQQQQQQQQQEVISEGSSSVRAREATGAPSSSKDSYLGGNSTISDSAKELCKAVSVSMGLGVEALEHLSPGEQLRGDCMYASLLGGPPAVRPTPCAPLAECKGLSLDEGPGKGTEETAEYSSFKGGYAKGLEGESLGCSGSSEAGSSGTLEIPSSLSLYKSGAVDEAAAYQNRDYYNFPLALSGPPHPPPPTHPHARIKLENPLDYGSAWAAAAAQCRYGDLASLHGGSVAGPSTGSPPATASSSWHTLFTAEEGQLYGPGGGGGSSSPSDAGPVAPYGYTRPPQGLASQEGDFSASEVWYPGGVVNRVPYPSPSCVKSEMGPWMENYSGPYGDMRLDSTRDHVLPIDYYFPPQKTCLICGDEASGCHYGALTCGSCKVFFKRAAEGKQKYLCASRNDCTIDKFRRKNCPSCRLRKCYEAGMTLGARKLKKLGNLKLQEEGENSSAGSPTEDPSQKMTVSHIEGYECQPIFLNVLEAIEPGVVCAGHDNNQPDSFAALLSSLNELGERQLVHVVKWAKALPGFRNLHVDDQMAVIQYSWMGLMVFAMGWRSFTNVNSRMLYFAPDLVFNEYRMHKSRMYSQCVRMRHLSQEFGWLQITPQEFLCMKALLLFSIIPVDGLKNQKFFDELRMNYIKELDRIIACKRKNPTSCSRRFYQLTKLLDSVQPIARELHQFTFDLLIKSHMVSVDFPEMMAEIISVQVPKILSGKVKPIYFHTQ

D(1B) dopamine receptor = D(1B) dopamine receptor (Homo sapiens, UniProt P21918)
D(1B) dopamine receptor, sequence (P21918 whole entry): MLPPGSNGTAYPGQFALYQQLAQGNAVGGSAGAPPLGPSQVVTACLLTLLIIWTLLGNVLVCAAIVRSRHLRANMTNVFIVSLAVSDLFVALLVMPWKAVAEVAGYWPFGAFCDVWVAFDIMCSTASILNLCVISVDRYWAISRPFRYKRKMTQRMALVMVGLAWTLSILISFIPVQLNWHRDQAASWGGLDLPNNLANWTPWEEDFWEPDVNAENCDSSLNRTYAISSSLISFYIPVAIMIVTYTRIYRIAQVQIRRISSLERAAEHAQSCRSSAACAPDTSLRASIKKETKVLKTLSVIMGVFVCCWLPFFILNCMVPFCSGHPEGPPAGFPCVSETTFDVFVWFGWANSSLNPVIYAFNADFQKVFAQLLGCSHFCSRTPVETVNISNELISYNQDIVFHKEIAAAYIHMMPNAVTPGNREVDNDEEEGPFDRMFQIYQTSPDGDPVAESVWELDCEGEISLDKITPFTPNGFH

Substance-K receptor = molecular target: T3, Substance-K receptor (Homo sapiens, UniProt P21452)
T3 sequence (P21452 whole entry): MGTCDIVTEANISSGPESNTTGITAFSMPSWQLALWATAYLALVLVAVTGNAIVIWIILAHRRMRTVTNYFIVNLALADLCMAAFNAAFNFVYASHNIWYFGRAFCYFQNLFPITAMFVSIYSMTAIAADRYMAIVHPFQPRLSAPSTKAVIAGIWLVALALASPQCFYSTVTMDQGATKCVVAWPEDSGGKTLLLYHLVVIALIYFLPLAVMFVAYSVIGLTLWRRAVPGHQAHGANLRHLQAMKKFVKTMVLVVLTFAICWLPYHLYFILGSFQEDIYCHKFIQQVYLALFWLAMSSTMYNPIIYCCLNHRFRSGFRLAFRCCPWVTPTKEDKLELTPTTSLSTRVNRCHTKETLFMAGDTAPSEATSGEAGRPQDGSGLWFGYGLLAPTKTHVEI

Androgen receptor [4] = molecular target: T2, Androgen receptor
[5] = molecular target: Voltage-dependent L-type calcium channel subunit alpha-1C (Homo sapiens, UniProt Q13936); assay type: functional, cell-based
Voltage-dependent L-type calcium channel subunit alpha-1C, sequence (Q13936 whole entry): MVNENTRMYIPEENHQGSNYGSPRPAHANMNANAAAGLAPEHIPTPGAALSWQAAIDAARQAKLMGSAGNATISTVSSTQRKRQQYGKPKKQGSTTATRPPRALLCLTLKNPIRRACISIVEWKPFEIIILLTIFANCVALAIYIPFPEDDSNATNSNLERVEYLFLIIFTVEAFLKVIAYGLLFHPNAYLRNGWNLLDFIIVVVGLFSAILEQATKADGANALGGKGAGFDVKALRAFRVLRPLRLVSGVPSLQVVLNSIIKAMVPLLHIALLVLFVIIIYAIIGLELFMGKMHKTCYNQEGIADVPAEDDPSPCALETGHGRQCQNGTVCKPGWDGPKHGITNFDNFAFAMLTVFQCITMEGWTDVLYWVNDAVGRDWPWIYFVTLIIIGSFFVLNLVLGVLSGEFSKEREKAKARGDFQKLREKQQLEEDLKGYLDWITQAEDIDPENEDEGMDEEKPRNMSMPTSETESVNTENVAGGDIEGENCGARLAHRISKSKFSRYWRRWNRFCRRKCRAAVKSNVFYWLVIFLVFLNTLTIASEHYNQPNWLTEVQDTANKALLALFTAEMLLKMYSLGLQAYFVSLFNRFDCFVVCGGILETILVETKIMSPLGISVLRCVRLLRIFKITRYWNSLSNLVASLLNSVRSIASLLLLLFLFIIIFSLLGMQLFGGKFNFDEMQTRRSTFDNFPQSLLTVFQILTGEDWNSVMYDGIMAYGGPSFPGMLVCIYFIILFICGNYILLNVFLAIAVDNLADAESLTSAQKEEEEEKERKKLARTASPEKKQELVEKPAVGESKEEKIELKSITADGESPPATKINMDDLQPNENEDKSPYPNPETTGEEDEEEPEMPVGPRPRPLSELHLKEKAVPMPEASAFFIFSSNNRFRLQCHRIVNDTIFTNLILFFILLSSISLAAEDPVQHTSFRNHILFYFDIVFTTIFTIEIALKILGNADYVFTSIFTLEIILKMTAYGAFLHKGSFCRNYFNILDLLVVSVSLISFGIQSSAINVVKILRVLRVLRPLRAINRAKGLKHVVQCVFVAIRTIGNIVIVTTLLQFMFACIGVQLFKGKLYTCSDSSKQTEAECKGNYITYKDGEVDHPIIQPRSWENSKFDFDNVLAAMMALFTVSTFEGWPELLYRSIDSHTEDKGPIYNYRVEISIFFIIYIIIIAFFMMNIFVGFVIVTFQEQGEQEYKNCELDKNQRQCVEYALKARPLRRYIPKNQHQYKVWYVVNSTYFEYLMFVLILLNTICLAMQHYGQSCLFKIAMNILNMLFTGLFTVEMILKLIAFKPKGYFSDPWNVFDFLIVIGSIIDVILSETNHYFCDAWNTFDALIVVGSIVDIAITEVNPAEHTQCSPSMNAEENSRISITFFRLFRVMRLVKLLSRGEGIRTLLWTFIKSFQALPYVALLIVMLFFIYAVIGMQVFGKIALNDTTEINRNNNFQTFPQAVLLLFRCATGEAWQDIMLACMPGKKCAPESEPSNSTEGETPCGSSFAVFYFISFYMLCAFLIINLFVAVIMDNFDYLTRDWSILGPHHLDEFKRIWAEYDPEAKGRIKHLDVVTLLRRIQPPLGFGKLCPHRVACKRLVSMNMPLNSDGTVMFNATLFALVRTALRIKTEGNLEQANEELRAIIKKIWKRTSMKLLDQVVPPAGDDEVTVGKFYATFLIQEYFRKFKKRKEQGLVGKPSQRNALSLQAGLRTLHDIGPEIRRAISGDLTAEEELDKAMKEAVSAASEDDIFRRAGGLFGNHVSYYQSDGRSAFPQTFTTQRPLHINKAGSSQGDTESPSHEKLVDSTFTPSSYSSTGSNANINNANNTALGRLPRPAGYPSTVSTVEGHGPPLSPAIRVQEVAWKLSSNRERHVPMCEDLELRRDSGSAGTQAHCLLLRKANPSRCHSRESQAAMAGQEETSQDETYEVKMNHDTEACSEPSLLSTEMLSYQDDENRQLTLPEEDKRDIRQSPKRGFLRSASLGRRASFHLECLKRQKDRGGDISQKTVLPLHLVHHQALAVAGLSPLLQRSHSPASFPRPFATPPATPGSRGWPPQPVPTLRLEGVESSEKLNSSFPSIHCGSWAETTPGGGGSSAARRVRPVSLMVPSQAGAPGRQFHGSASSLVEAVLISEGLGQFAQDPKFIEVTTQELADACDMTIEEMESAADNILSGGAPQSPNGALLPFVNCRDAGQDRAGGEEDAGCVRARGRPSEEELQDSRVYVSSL

Androgen receptor [6] = molecular target: T2, Androgen receptor; assay type: functional; remark: listed apart in the source
[7] = molecular target: T4, Muscarinic acetylcholine receptor M1 (Homo sapiens, UniProt P11229)
T4 sequence (P11229 whole entry): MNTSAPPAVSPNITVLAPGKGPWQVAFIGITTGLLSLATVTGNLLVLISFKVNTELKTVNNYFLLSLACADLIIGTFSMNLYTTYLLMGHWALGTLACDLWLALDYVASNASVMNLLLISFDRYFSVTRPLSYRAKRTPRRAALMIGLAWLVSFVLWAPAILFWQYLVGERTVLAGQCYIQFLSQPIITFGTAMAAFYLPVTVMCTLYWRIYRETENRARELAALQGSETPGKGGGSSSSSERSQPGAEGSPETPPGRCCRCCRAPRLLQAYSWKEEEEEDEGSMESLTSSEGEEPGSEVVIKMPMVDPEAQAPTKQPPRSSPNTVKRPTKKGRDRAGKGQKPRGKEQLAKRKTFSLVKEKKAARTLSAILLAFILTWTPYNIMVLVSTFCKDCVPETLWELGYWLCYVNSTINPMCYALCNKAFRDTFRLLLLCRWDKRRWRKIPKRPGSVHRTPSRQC

[8] = molecular target: T5, Nuclear receptor subfamily 1 group I member 3 (Homo sapiens, UniProt Q14994); assay type: functional
T5 sequence (Q14994 whole entry): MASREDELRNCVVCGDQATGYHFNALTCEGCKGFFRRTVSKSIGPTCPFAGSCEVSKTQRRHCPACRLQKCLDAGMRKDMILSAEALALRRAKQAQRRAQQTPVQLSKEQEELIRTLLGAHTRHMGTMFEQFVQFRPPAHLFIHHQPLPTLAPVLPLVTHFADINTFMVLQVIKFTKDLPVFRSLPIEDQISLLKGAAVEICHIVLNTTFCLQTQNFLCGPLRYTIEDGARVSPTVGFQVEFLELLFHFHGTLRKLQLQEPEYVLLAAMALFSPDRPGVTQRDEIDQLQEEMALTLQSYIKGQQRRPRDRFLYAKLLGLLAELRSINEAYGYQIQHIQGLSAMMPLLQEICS
Also: assay procedure not described here.

5-hydroxytryptamine receptor 7, sequence (P34969 whole entry): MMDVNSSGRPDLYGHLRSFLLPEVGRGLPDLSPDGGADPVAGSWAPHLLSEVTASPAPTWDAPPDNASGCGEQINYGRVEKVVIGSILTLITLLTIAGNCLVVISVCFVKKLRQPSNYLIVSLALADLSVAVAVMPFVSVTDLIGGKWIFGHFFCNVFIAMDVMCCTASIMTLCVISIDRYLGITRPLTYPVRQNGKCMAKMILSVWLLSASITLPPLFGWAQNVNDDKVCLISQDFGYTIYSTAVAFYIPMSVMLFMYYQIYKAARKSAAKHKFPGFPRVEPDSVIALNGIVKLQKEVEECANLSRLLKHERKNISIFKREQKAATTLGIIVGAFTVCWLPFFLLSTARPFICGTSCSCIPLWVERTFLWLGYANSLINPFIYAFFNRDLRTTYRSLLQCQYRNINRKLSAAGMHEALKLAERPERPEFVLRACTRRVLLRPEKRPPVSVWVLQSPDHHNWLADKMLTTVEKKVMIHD

SMILES: CCOc1nc2cccc(C(=O)O)c2n1Cc1ccc(-c2ccccc2-c2nnn[nH]2)cc1
- AC50 [1]: > 10 µM
- AC50 [2]: > 10 µM
- AC50 (Androgen receptor [3]): > 30 µM
- AC50 (D(1B) dopamine receptor): > 10 µM
- AC50 (Substance-K receptor): > 10 µM
- AC50 (Androgen receptor [4]): > 30 µM

SMILES: CCCc1nc2c(C)cc(-c3nc4ccccc4n3C)cc2n1Cc1ccc(-c2ccccc2C(=O)O)cc1
- AC50 [1]: > 10 µM
- AC50 [2]: > 10 µM

SMILES: CCOc1cc([C@@H](CS(C)(=O)=O)N2C(=O)c3cccc(NC(C)=O)c3C2=O)ccc1OC
- AC50 [5]: > 50 µM
- AC50 (Androgen receptor [3]): > 30 µM

SMILES: CC(C(=O)O)c1ccc2oc(-c3ccc(Cl)cc3)nc2c1 (stereo unspecified) [BENOXAPROFEN]
- AC50 (Androgen receptor [6]): > 30 µM
- AC50 (Androgen receptor [3]): > 30 µM

SMILES: CC=CC1=C(C(=O)O)N2C(=O)[C@@H](NC(=O)[C@H](N)c3ccc(O)cc3)[C@H]2SC1 [CEFPROZIL]
- AC50 (Androgen receptor [4]): > 30 µM

SMILES: CC(C)NC(=N)NC(=N)Nc1ccc(Cl)c(Cl)c1 [CHLORPROGUANIL]
- AC50 [7]: > 30 µM

SMILES: CCC(=O)O[C@]1(C(=O)CCl)[C@@H](C)C[C@H]2[C@@H]3CCC4=CC(=O)C=C[C@]4(C)[C@@]3(F)[C@@H](O)C[C@@]21C [CLOBETASOL PROPIONATE]
- AC50 (Androgen receptor [6]): 27 µM
- AC50 (Androgen receptor [3]): > 30 µM

SMILES: Cc1nc(Nc2ncc(C(=O)Nc3c(C)cccc3Cl)s2)cc(N2CCN(CCO)CC2)n1 [DASATINIB]
- AC50 [2]: > 10 µM
- AC50 (Substance-K receptor): > 10 µM

SMILES: O=C(O)Cc1ccccc1Nc1c(Cl)cccc1Cl [DICLOFENAC]
- AC50 [8]: 23 µM
- AC50 [1]: > 10 µM
- AC50 [2]: > 10 µM
- AC50 (D(1B) dopamine receptor): > 10 µM
- AC50 (Substance-K receptor): > 10 µM
- AC50 (Androgen receptor [4]): > 30 µM

SMILES: CN[C@@H]1[C@H](O[C@H]2[C@H](O[C@H]3[C@H](O)[C@@H](O)[C@H](NC(=N)N)[C@@H](O)[C@@H]3NC(=N)N)O[C@@H](C)[C@]2(O)CO)O[C@@H](CO)[C@H](O)[C@H]1O [DIHYDROSTREPTOMYCIN]
- AC50 [7]: > 30 µM

SMILES: Cc1ccc(C)c(OCCCC(C)(C)C(=O)O)c1 [GEMFIBROZIL]
- AC50 (Androgen receptor [4]): > 30 µM

SMILES: C#C[C@]1(O)C=C[C@H]2[C@@H]3CCC4=CC(=O)CC[C@@H]4[C@H]3CC[C@@]21CC [GESTODENE]
- AC50 [7]: > 30 µM

SMILES: COc1ccccc1OC1(C)OC(=O)c2ccccc2O1 (stereo unspecified) [GUAIMESAL]
- AC50 (Androgen receptor [6]): > 30 µM
- AC50 (Androgen receptor [3]): > 30 µM

SMILES: CCCCCCCN(CC)CCCC(O)c1ccc(NS(C)(=O)=O)cc1 (stereo unspecified) [IBUTILIDE]
- AC50 [5]: > 30 µM

SMILES: CNC(=C[N+](=O)[O-])NCCSCc1csc(CN(C)C)n1 [NIZATIDINE]
- AC50 (Androgen receptor [4]): > 10 µM

SMILES: CN(CCOc1ccc(CC2SC(=O)NC2=O)cc1)c1ccccn1 (stereo unspecified) [ROSIGLITAZONE]
- AC50 [8]: 18 µM
- AC50 [1]: > 10 µM
- AC50 [2]: > 10 µM

SMILES: COc1cc(C(=O)NS(=O)(=O)c2ccccc2C)ccc1Cc1cn(C)c2ccc(NC(=O)OC3CCCC3)cc12 [ZAFIRLUKAST]
- AC50 [8]: 4 µM

SMILES: O=C1Cc2cc(CCN3CCN(c4nsc5ccccc45)CC3)c(Cl)cc2N1 [ZIPRASIDONE]
- AC50 [5]: > 50 µM
